{
  "source": "patent US7037682B2",
  "about": "“In vitro activity assay for human hepatitis B virus (HBV) DNA polymerase, and its use for screening for inhibitors of HBV DNA polymerase” (Government of the Republic of Singapore, priority 1999, dated 2006)",
  "note": "Entries after “also recorded” stand apart in the source; their conditions may differ.",
  "data": [
    {"system": "wild type human HBV DNA polymerase", "experiment": "In vitro priming activity assay of human HBV DNA polymerase (anti-priming testing, nitrocellulose membrane filtration)", "format": "biochemical, human hepatitis B virus (HBV)", "conditions": "in vitro translated wild type enzyme in wheat germ lysate; [α-32P] dTTP; corresponding nucleotide replaced with the analog; 30° C. for 30 min; FIG. 6", "method": "Unless otherwise noted, the polymerase activity assay was conducted in solution containing 100 mM Tris HCl (pH 7.5), 10 mM MgCl2, 30 mM NaCl, 10% glycerol, 4 mM dithiothreitol, 100 μM of each unlabeled deoxyribonucleotide triphosphates (dATP, dCTP and dGTP) and 5 μCi [α-^32P] dTTP. The reactions were incubated at 30° C. for 30 min, after which time a 5 μl aliquot was added to 85 μl of tricine sodium dodecyl sulfate-polyacrylamide gel electrophoresis (SDS-PAGE) sample buffer (Novex, U.S.A.), and 10 μl were analyzed on 10% SDS-PAGE. Following electrophoresis, gels were fixed by soaking in 10% methanol plus 10% acetic acid and dried under vacuum. Dried gels were exposed to X-ray film and signals quantified by laser densitometry.\nScreening for inhibitors of human HBV DNA polymerase would provide novel therapeutic agents for HBV infection, as effective inhibition of the polymerase activity will lead to inhibition of HBV viral replication. The simplified activity assay reported in the present invention would allow faster analysis of the inhibitory effects of newly found molecules on DNA polymerase of variant HBV carrying mutations on the major surface antigen. Briefly, a candidate inhibitor was first incubated with the wild type human HBV DNA polymerase that was PCR amplified and in vitro translated as reported in the present invention. The incubation was in the presence of [α-^32P] dTTP and with other conditions identical as above-mentioned. Its inhibitory effect may be determined either by laser densitometry following SDS-PAGE analysis, or by measuring the amount of radiolabeled HBV DNA polymerase bound to nitrocellulose membrane after filtration. […] Further assay on the potential inhibitory effect derived from the above-mentioned assay may then be extended to other systems such as HBV-producing cell lines and transgenic animal model.\nDepending on the type of label used, detection of the labeled hybrid HBV DNA polymerase product may be achieved by any appropriate means. Generally this may include a step of separating labeled mononucleotide from labeled human HBV DNA polymerase. […] When the label is a radiolabel as is the case in the simplified assay reported in the present invention, then the amount of radioactivity bound to the filter may be quantified using a plate reading scintillation counter.\nIn the present invention, the following nucleotide analogs capable of inhibiting the HBV DNA polymerase activity may be assayed for their anti-priming activity. […] The remaining radiolabeled human HBV DNA polymerase bound to the nitrocellulose membrane is then measured quantified using a plate reading scintillation counter.", "values": [
      {"smiles": "Nc1ncnc2c1ncn2[C@H]1CC[C@@H](COP(=O)(O)OP(=O)(O)OP(=O)(O)O)O1", "note": "[ddATP]", "anti-priming effect (radiolabeled human HBV DNA polymerase remained on nitrocellulose membrane, as measured by cpm, compared with the control)": "no obvious anti-priming effect; also recorded: no anti-priming activity is observed"},
      {"smiles": "Nc1ccn([C@H]2CC[C@@H](COP(=O)(O)OP(=O)(O)OP(=O)(O)O)O2)c(=O)n1", "note": "[ddCTP]", "anti-priming effect (radiolabeled human HBV DNA polymerase remained on nitrocellulose membrane, as measured by cpm, compared with the control)": "inhibitory effect is observed; also recorded: significantly lower amount"},
      {"smiles": "Nc1nc2c(ncn2[C@H]2CC[C@@H](COP(=O)(O)OP(=O)(O)OP(=O)(O)O)O2)c(=O)[nH]1", "note": "[ddGTP]", "anti-priming effect (radiolabeled human HBV DNA polymerase remained on nitrocellulose membrane, as measured by cpm, compared with the control)": "inhibitory effect is observed; also recorded: significantly lower amount"},
      {"smiles": "Cc1cn([C@H]2CC[C@@H](COP(=O)(O)OP(=O)(O)OP(=O)(O)O)O2)c(=O)[nH]c1=O", "note": "[ddTTP]", "anti-priming effect (radiolabeled human HBV DNA polymerase remained on nitrocellulose membrane, as measured by cpm, compared with the control)": "no obvious anti-priming effect; also recorded: no anti-priming activity is observed"}
    ]}
  ]
}
